Data taken from patent publication US8569344B2, “N-piperidinyl acetamide derivatives as calcium channel blockers” (Zalicus Pharmaceuticals Ltd., priority 2008, dated 2013).

What was measured:
[1] = target: T1, human α1G T-type channels (Homo sapiens, UniProt O43497); test: T-type calcium channel block, whole cell patch clamp in HEK cells (α1G); format: cell-based; conditions: HEK cells, patch clamp, mainly non-inactivated protocol; values above 10 μM shown as 10 μM, below 0.30 μM shown as 0.30 μM; read-out: T-type Calcium Channel Block α1G IC50
T1 construct: expressed in transfected cells; host or cells: HEK 293
T1 sequence (O43497 whole entry): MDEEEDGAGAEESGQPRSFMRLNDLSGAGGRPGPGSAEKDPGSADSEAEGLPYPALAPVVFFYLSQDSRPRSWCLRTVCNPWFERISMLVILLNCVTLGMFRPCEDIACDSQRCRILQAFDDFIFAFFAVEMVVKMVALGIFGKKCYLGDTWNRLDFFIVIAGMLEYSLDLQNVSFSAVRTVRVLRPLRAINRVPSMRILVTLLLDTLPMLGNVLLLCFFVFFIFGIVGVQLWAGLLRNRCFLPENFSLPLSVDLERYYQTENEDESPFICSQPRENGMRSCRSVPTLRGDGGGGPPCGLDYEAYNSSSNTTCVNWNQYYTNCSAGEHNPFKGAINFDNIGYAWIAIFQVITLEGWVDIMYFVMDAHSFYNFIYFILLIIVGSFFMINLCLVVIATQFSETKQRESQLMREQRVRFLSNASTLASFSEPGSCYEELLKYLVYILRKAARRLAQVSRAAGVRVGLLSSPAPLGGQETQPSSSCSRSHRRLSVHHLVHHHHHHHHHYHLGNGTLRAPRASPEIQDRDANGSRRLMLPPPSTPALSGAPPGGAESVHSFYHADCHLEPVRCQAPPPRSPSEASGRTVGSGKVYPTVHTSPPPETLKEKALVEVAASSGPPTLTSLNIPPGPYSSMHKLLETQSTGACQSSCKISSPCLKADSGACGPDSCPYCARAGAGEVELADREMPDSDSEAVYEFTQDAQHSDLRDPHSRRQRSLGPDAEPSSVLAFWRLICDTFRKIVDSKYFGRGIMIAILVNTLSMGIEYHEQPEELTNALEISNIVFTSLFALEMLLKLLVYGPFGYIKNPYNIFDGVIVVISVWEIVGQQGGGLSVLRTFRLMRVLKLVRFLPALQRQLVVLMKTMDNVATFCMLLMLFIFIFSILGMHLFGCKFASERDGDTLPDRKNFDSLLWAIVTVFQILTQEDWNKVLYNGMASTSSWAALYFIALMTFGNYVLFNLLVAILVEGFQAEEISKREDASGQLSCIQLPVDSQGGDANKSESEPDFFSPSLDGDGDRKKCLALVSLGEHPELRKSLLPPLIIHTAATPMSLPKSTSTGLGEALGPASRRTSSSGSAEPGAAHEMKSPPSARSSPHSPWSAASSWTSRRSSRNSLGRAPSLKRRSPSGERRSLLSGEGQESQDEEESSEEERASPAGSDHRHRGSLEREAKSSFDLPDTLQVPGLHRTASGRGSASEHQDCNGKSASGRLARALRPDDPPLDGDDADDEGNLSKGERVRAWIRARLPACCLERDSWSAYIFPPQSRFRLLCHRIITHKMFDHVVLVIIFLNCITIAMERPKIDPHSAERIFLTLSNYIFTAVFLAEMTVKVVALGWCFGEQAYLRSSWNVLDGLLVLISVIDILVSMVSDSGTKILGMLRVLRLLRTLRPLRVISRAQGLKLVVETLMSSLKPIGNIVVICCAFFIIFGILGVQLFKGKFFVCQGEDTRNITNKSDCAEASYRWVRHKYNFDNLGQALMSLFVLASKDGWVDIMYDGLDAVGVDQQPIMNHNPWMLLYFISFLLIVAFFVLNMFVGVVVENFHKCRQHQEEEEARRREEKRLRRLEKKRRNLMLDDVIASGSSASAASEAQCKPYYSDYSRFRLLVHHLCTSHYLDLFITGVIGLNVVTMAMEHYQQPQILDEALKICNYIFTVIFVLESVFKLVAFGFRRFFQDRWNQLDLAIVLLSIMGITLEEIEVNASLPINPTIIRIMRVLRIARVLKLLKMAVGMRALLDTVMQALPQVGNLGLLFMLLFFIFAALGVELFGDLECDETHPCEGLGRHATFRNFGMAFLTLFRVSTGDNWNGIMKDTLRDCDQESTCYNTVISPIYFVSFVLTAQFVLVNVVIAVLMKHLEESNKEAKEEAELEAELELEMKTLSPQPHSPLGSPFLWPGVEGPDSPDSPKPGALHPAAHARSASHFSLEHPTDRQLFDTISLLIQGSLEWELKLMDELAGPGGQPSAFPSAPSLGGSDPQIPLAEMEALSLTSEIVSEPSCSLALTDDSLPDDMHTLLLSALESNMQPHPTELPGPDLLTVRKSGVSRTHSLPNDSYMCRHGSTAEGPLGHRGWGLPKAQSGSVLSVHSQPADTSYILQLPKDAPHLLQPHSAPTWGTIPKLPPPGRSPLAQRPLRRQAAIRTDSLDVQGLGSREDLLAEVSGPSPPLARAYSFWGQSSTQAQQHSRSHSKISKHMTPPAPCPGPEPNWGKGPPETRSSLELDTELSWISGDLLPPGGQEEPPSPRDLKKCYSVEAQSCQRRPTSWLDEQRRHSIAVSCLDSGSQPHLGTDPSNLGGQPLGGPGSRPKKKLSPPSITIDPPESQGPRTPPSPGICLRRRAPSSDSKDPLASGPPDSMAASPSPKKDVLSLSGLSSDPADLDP

[2] = target: T2, human α1H T-type channels (Homo sapiens, UniProt O95180); test: T-type calcium channel block, whole cell patch clamp in HEK cells (α1H); format: cell-based; conditions: HEK cells, patch clamp, mainly non-inactivated protocol; values above 10 μM shown as 10 μM; read-out: T-type Calcium Channel Block α1H IC50
T2 construct: expressed in transfected cells; host or cells: HEK 293
T2 sequence (O95180 whole entry): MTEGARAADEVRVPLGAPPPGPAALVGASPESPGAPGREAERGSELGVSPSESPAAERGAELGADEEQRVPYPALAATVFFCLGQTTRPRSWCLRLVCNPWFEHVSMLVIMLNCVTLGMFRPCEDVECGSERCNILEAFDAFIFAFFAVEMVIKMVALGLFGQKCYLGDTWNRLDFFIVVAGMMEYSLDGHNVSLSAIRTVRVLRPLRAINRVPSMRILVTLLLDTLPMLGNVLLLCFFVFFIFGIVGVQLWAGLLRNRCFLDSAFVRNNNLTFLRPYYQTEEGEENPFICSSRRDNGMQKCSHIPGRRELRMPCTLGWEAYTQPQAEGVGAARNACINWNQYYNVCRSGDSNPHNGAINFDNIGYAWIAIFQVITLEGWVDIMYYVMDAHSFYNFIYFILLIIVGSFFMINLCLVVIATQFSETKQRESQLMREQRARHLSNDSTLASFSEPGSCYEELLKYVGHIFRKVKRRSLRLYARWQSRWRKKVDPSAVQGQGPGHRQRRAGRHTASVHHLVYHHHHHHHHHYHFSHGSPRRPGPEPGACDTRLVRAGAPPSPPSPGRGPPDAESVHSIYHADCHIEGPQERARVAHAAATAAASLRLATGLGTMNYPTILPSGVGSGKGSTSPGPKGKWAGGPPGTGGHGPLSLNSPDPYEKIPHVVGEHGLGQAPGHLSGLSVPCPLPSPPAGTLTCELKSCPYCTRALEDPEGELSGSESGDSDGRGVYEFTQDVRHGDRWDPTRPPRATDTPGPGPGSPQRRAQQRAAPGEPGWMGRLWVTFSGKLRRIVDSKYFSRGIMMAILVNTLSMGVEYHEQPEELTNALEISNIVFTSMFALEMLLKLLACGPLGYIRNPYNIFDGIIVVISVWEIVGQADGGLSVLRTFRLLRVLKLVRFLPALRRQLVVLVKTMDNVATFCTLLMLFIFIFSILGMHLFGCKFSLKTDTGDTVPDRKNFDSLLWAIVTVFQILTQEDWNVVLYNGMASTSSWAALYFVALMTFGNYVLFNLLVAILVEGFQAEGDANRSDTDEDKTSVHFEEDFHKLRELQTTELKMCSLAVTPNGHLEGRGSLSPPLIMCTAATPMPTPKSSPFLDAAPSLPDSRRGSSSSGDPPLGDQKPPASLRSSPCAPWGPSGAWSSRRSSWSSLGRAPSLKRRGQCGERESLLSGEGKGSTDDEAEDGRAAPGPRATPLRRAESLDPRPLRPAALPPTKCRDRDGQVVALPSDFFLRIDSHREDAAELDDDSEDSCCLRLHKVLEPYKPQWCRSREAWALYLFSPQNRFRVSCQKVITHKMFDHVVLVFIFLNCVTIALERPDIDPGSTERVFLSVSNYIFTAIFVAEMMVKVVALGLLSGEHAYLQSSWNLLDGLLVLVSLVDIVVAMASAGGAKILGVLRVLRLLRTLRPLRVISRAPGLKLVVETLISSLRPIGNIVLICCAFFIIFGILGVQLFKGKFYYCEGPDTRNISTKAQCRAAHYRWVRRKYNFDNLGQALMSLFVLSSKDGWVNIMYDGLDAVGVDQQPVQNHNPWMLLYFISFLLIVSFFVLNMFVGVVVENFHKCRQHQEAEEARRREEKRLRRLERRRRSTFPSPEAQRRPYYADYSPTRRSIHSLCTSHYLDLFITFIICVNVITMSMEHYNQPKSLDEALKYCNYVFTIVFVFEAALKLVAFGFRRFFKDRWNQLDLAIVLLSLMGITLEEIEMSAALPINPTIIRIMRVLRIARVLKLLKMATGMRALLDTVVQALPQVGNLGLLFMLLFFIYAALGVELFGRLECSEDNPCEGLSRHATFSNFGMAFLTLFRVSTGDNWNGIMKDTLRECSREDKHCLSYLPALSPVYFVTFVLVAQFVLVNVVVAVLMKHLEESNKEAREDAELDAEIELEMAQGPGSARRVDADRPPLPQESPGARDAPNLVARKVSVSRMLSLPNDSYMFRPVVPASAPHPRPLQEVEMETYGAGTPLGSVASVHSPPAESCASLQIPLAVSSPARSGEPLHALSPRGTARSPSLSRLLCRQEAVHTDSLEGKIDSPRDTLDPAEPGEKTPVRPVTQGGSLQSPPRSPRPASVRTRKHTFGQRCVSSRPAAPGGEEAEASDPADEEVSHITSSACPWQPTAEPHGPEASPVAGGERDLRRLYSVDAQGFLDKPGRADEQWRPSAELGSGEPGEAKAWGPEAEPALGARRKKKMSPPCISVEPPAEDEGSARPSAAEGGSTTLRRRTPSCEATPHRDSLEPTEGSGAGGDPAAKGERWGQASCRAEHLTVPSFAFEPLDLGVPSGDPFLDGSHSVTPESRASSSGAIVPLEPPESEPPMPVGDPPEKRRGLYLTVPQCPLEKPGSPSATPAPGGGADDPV

IC50 [1]	IC50 [2]	SMILES
0.7 µM	0.6 µM	CC(C)(C)C(=O)NC1(CN2CCC(CNC(=O)c3cc(C(F)(F)F)cc(C(F)(F)F)c3)CC2)CC1 [Compound 361, N-((1-((1-pivalamidocyclopropyl)methyl)piperidin-4-yl)methyl)-3,5-bis(trifluoromethyl)benzamide]
6.91 µM	7.01 µM	CC(C)(C)NC(=O)CN1CCC(CNC(=O)/C=C/c2cc(F)cc(F)c2)CC1 [Compound 369, (E)-N-((1-(2-(tert-butylamino)-2-oxoethyl)piperidin-4-yl)methyl)-3-(3,5-difluorophenyl)acrylamide]
> 10 µM	> 10 µM	CC(C)(C)NC(=O)CN1CCC(CNC(=O)c2cc(C(F)(F)F)ccn2)CC1 [Compound 372, N-((1-(2-(tert-butylamino)-2-oxoethyl)piperidin-4-yl)methyl)-4-(trifluoromethyl)picolinamide]
> 10 µM	> 10 µM	CC(C)(C)NC(=O)CN1CCC(CNC(=O)c2ccnc(N3CCCC3)c2)CC1 [Compound 373, N-((1-(2-(tert-butylamino)-2-oxoethyl)piperidin-4-yl)methyl)-2-(pyrrolidin-1-yl)isonicotinamide]
< 0.3 µM	0.45 µM	CCOc1cc(OCC)cc(C(=O)NCC2CCN(CC(=O)NC(C)(C)C)CC2)c1 [Compound 377, N-((1-(2-(tert-butylamino)-2-oxoethyl)piperidin-4-yl)methyl)-3,5-diethoxybenzamide]
1.6 µM	1.44 µM	CC(C)(C)NC(=O)CN1CCC(CNC(=O)/C=C/c2cc(Cl)cc(Cl)c2)CC1 [Compound 378, (E)-N-((1-(2-(tert-butylamino)-2-oxoethyl)piperidin-4-yl)methyl)-3-(3,5-dichlorophenyl)acrylamide]
< 0.3 µM	0.13 µM	COc1cc(C(=O)NCC2CCN(CC(=O)NC(C)(C)C)CC2)cc(C(F)(F)F)c1 [Compound 379, N-((1-(2-(tert-buylamino)-2-oxoethyl)piperidin-4-yl)methyl)-3-methoxy-5-(trifluoromethyl)benzamide]
< 0.3 µM	0.11 µM	CC(C)(C)NC(=O)CN1CCC(CNC(=O)c2cc(Cl)cc(C(F)(F)F)c2)CC1 [Compound 380, N-((1-(2-(tert-butylamino)-2-oxoethyl)piperidin-4-yl)methyl)-3-chloro-5-(trifluoromethyl)benzamide]
< 0.3 µM	0.08 µM	CC(C)(C)NC(=O)CN1CCC(CNC(=O)c2cc(Cl)cc(Br)c2)CC1 [Compound 381, 3-bromo-N-((1-(2-(tert-butylamino)-2-oxoethyl)piperidin-4-yl)methyl)-5-chlorobenzamide]
< 0.3 µM	0.09 µM	CC(C)(C)NC(=O)CN1CCC(CNC(=O)c2cc(Br)cc(C(F)(F)F)c2)CC1 [Compound 382, 3-bromo-N-((1-(2-(tert-butylamino)-2-oxoethyl)piperidin-4-yl)methyl)-5-(trifluoromethyl)benzamide]
1.22 µM	1.35 µM	CC(C)(C)NC(=O)CN1CCC(CNC(=O)Cc2cc(C(F)(F)F)cc(C(F)(F)F)c2)CC1 [Compound 383, 2-(3,5-bis(trifluoromethyl)phenyl)-N-((1-(2-(tert-butylamino)-2-oxoethyl)piperidin-4-yl)methyl)acetamide]
< 0.3 µM	0.09 µM	CC(C)(C)NC(=O)CN1CCC(CNC(=O)c2cc(Br)cc(Br)c2)CC1 [Compound 384, 3,5-dibromo-N-((1-(2-(tert-buylamino)-2-oxoethyl)piperidin-4-yl)methyl)benzamide]
0.58 µM	0.8 µM	CC(C)S(=O)(=O)NCCN1CCC(CNC(=O)c2cc(F)cc(Cl)c2)CC1 [Compound 385, 3-chloro-5-fluoro-N-((1-(2-(1-methylethylsulfonamido)ethyl)piperidin-4-yl)methyl)benzamide]
0.87 µM	0.49 µM	CC(C)S(=O)(=O)NCCN1CCC(CNC(=O)c2cccc(Br)c2)CC1 [Compound 386, 3-bromo-N-((1-(2-(1-methylethylsulfonamido)ethyl)piperidin-4-yl)methyl)benzamide]
0.99 µM	0.72 µM	O=C(NCC1CCN(CCNS(=O)(=O)C2CC2)CC1)c1ccc(C(F)(F)F)c(F)c1 [Compound 387, N-((1-(2-(cyclopropanesulfonamido)ethyl)piperidin-4-yl)methyl)-3-fluoro-4-(trifluoromethyl)benzamide]
< 0.3 µM	0.16 µM	O=C(NCC1CCN(CCNS(=O)(=O)C(F)(F)F)CC1)c1cc(Br)cc(Br)c1 [Compound 388, 3,5-dibromo-N-((1-(2-(trifluoromethylsulfonamido)ethyl)piperidin-4-yl)methyl)benzamide]
> 10 µM	> 10 µM	O=C(NCC1CCN(CCNS(=O)(=O)C(F)(F)F)CC1)c1ccc(OC(F)(F)F)cc1 [Compound 389, 4-(trifluoromethoxy)-N-((1-(2-(trifluoromethylsulfonamido)ethyl)piperidin-4-yl)methyl)benzamide]
< 0.3 µM	0.06 µM	O=C(NCC1CCN(CCNC(=O)C2(C(F)(F)F)CCC2)CC1)c1cc(C(F)(F)F)cc(C(F)(F)F)c1 [Compound 434, 3,5-bis(trifluoromethyl)-N-((1-(2-(1-(trifluoromethyl)cyclobutanecarboxamido)ethyl)piperidin-4-yl)methyl)benzamide]

IC50 [1]	IC50 [2]	SMILES
< 0.3 µM	0.09 µM	O=C(NCC1CCN(CCNC(=O)C2(C(F)(F)F)CCC2)CC1)c1cc(F)cc(C(F)(F)F)c1 [Compound 435, 3-fluoro-5-(trifluoromethyl)-N-((1-(2-(1-(trifluoromethyl)cyclobutanecarboxamido)ethyl)piperidin-4-yl)methyl)benzamide]
> 10 µM	> 10 µM	Cc1cc(C)cc(C(=O)NCC2CCN(CC(=O)NC(C)C)CC2)c1 [Compound 436, N-((1-(2-(isopropylamino)-2-oxoethyl)piperidin-4-yl)methyl)-3,5-dimethylbenzamide]
> 10 µM	> 10 µM	Cc1cc(F)cc(C(=O)NCC2CCN(CC(=O)NC(C)C)CC2)c1 [Compound 437, 3-fluoro-N-((1-(2-(isopropylamino)-2-oxoethyl)piperidin-4-yl)methyl)-5-methylbenzamide]
3.91 µM	1.71 µM	COc1cc(F)cc(C(=O)NCC2CCN(CC(=O)NC(C)C)CC2)c1 [Compound 438, 3-fluoro-N-((1-(2-(isopropylamino)-2-oxoethyl)piperidin-4-yl)methyl)-5-methoxybenzamide]
3.28 µM	2.17 µM	COc1cc(OC)cc(C(=O)NCC2CCN(CC(=O)NC(C)C)CC2)c1 [Compound 439, N-((1-(2-(isopropylamino)-2-oxoethyl)piperidin-4-yl)methyl)-3,5-dimethoxybenzamide]
> 10 µM	> 10 µM	CC(C)NC(=O)CN1CCC(CNC(=O)c2cccc(C(F)(F)F)c2)CC1 [Compound 440, N-((1-(2-(isopropylamino)-2-oxoethyl)piperidin-4-yl)methyl)-3-(trifluoromethyl)benzamide]
9.48 µM	> 10 µM	CC(C)NC(=O)CN1CCC(CNC(=O)c2cccc(Br)c2)CC1 [Compound 441, 3-bromo-N-((1-(2-(isopropylamino)-2-oxoethyl)piperidin-4-yl)methyl)benzamide]
> 10 µM	> 10 µM	CC(C)NC(=O)CN1CCC(CNC(=O)c2cccc(Cl)c2)CC1 [Compound 442, 3-chloro-N-((1-(2-(isopropylamino)-2-oxoethyl)piperidin-4-yl)methyl)benzamide]
3.31 µM	2.81 µM	CC(C)NC(=O)CN1CCC(CNC(=O)c2cc(F)cc(Cl)c2)CC1 [Compound 443, 3-chloro-5-fluoro-N-((1-(2-(isopropyl-amino)-2-oxoethyl)piperidin-4-yl)methyl)benzamide]
7.4 µM	> 10 µM	CC(C)NC(=O)CN1CCC(CNC(=O)c2cccc(OC(F)(F)F)c2)CC1 [Compound 444, N-((1-(2-(isopropylamino)-2-oxoethyl)piperidin-4-yl)methyl)-3-(trifluoromethoxy)benzamide]
> 10 µM	> 10 µM	CCCNC(=O)CN1CCC(CNC(=O)c2cc(C)cc(C)c2)CC1 [Compound 445, 3,5-dimethyl-N-((1-(2-oxo-2-(propylamino)ethyl)piperidin-4-yl)methyl)benzamide]
> 10 µM	> 10 µM	CCCNC(=O)CN1CCC(CNC(=O)c2cc(C)cc(F)c2)CC1 [Compound 446, 3-fluoro-5-methyl-N-((1-(2-oxo-2-(propylamino)ethyl)piperidin-4-yl)methyl)benzamide]
9.15 µM	3.08 µM	CCCNC(=O)CN1CCC(CNC(=O)c2cc(F)cc(OC)c2)CC1 [Compound 447, 3-fluoro-5-methoxy-N-((1-(2-oxo-2-(propylamino)ethyl)piperidin-4-yl)methyl)benzamide]
9.73 µM	4.64 µM	CCCNC(=O)CN1CCC(CNC(=O)c2cc(OC)cc(OC)c2)CC1 [Compound 448, 3,5-dimethoxy-N-((1-(2-oxo-2-(propylamino)ethyl)piperidin-4-yl)methyl)benzamide]
> 10 µM	> 10 µM	CCCNC(=O)CN1CCC(CNC(=O)c2cccc(C(F)(F)F)c2)CC1 [Compound 449, N-((1-(2-oxo-2-(propylamino)ethyl)piperidin-4-yl)methyl)-3-(trifluoromethyl)benzamide]
8.88 µM	> 10 µM	CCCNC(=O)CN1CCC(CNC(=O)c2cccc(Br)c2)CC1 [Compound 450, 3-bromo-N-((1-(2-oxo-2-(propylamino)ethyl)piperidin-4-yl)methyl)benzamide]
> 10 µM	> 10 µM	CCCNC(=O)CN1CCC(CNC(=O)c2cccc(Cl)c2)CC1 [Compound 451, 3-chloro-N-((1-(2-oxo-2-(propylamino)ethyl)piperidin-4-yl)methyl)benzamide]
